Assay results reported in PubChem BioAssay (NCI).
“And” between values parts separate entries of the source, which are not always exact repeats. Equal entries are not always repeated.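 Compound exposure: 48 hours, 5 concentrations, 96-well plates. At the GI50, growth is halved. Definition used: TGI = concentration required for complete inhibition of growth.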

Key:
Experiment in all cases: NCI anticancer screen, dose series, 48 h
[1] = test system: NCI-H522 lung
[2] = test system: CCRF-CEM leukemia
[3] = test system: ACHN renal
[4] = test system: UACC-62 melanoma
[5] = test system: OVCAR-4 ovarian
[6] = test system: IGROV1 ovarian
[7] = test system: SF-539 CNS
[8] = test system: HCT-116 colon
[9] = test system: CAKI-1 renal
[10] = test system: SNB-75 CNS

| Compound | GI50 [1] | TGI [1] | GI50 [2] | TGI [2] | GI50 [3] | TGI [3] | GI50 [4] | TGI [4] | GI50 [5] | TGI [5] | GI50 [6] | TGI [6] | GI50 [7] | TGI [7] | GI50 [8] | TGI [8] | GI50 [9] | TGI [9] | GI50 [10] | TGI [10] |
| --- | --- | --- | --- | --- | --- | --- | --- | --- | --- | --- | --- | --- | --- | --- | --- | --- | --- | --- | --- | --- |
| CC([C@H]1CCC2C3CCC4C[C@@H](NC=O)CC[C@]4(C)C3CC[C@@]21C)N(C)C (stereo partly drawn) | 4.53 µM | 17.6 µM | 2.31 µM | 10.9 µM | 5.17 µM | 18 µM | 2.04 µM | 4.08 µM | 4.72 µM | 23.1 µM | 4.81 µM | 18.2 µM | 1.37 µM | 2.79 µM | 1.54 µM | 3.22 µM | 4.26 µM | 11.9 µM | 4.68 µM | 18.2 µM |
| C=C(Cl)COC(=O)Nc1cccc(Cl)c1 |  | 83.6 µM |  | > 100 µM |  | > 100 µM |  | 59.5 µM |  | > 100 µM |  | > 100 µM |  | > 100 µM |  | 78.7 µM |  | > 100 µM |  | 83.7 µM |
| Cc1ccccc1CN1CC2=C(CCN(Cc3ccccc3)C2=O)N2CCN=C12 |  | > 100 µM | 0.7 µM | > 100 µM |  | > 100 µM |  | > 100 µM |  | > 100 µM |  | > 100 µM |  | > 14.1 µM |  | > 100 µM |  | > 100 µM |  | > 100 µM |
| N#CCc1ccc(C(C#N)/C(CCCC(=O)Nc2cccc([N+](=O)[O-])c2)=N\NC(=O)NN)cc1 (stereo not drawn) |  | > 100 µM |  | > 100 µM |  | > 100 µM |  | > 100 µM |  | > 100 µM |  | > 100 µM |  | > 100 µM |  | > 100 µM |  | > 100 µM |  | > 100 µM |
| CC(=O)OCC1OC(OC2CC3C(C)(C)C(OC(C)=O)CC[C@]3(C)C3CCC45CC4(CC[C@H]5C(C)CC(O)[C@@H](O)C(C)(C)O)[C@]23C)C(O)C(O)C1O (stereo partly drawn) |  | 7.17 µM and 7.74 µM | 4.07 µM | 14.8 µM and 15.4 µM | 15 µM | 14.3 µM and 29 µM | 4.9 µM | 12.2 µM and 16.5 µM | 13.4 µM | 12.7 µM and 26.1 µM | 4.63 µM | 13.7 µM and 14.4 µM |  | 13.5 µM and 18.9 µM |  | 13.8 µM and 21.7 µM | 6.07 µM | 13.4 µM and 17.2 µM | 5.04 µM | 12 µM and 16.8 µM |
| N#CC1=C(N)NC(=S)NC12Nc1ccccc1O2 (stereo not drawn) | 11.5 µM | 43.1 µM | 61.7 µM | > 100 µM | 29.2 µM | 99.2 µM | 20.8 µM | 70 µM | 52 µM | > 100 µM | 3.17 µM | 24.9 µM | 45.8 µM | > 100 µM | 22.5 µM | 85.2 µM | 39.1 µM | > 100 µM | 59.5 µM | > 100 µM |
| CC1(C)NCCC[C@]2(C)[C@H]3C=CC4=C5C[C@](C)(CO)CC[C@]5(C)CC[C@@]4(C)[C@]3(C)CC[C@@H]12 | 2.38 µM | 7.31 µM | 3.52 µM | 14.6 µM | 2.93 µM | 9.56 µM | 3.13 µM | 10.9 µM | 5.63 µM | 20.8 µM | 4.08 µM | 14.8 µM | 2.69 µM | 9.26 µM | 2.73 µM | 10.6 µM | 3.7 µM | 13.8 µM | 3.43 µM | 14.8 µM |
| C=C1C[C@@H]2C/C=C/C(=O)C/C(C)=C\C=C\C(=O)O[C@H](C=O)C/C(C)=C/[C@H](C1)O2 | 4.48 µM | 19.5 µM | 0.315 µM | 0.956 µM | 6.64 µM | 21.8 µM | 0.818 µM | 14 µM | 4.65 µM | 70 µM | 1.16 µM | 21.7 µM | 0.328 µM | 1.64 µM | 0.37 µM | 3.86 µM | 4.71 µM | 26 µM | 0.294 µM | 1.96 µM |
| NCCCN(CCCN)CCCNCc1c2ccccc2c(CNCCCN(CCCN)CCCN)c2ccccc12 |  | 26.1 µM |  | > 100 µM |  | 25.7 µM |  | 21.5 µM |  | 34 µM |  | 28.1 µM |  | 30.2 µM |  | 47.9 µM |  | 32.7 µM |  | 34.3 µM |
| C/C=C(\C)C(=O)N[C@H]1[C@@H](OC(C)=O)C[C@]2(C)C3CC[C@@]4(C)C(CC[C@@H]4C(C)N(C)C)C3CCC2[C@H]1O (stereo partly drawn) | 4.99 µM | 15.3 µM | 3.57 µM | 21.2 µM | 5.74 µM | 17.9 µM | 1.91 µM | 4.13 µM | 5.29 µM | 31.5 µM | 5.88 µM | 16.8 µM | 1.87 µM | 4.97 µM | 1.88 µM | 4.34 µM | 3.2 µM | 14 µM | 5.86 µM | 20.8 µM |
| Cc1cccc(C)c1NC(=O)CCCC(=O)CC(=O)/C=C/c1ccccc1 |  | > 100 µM |  | > 100 µM |  | > 100 µM |  | > 100 µM |  | > 100 µM |  | > 100 µM |  | > 100 µM |  | > 100 µM |  | > 100 µM |  | > 100 µM |
| C=C1CC[C@@]2(C#N)[C@H]3[C@H](CC[C@@H]2C)[C@@H](C)C[C@@H](CC(C)(C)C#N)[C@H]13 | 10.8 µM | 57.9 µM | 1.62 µM | 33.5 µM | 1.03 µM | 14.7 µM | 2.45 µM | 16.7 µM | 2.14 µM | 41 µM | 4.77 µM | 59.4 µM | 0.609 µM | 17.5 µM | 0.229 µM | 11.2 µM | 1.73 µM | > 100 µM | 0.215 µM | 0.705 µM |
| S=c1[nH]c(=S)c2sc(=S)n(-c3ccccc3)c2[nH]1 |  | > 100 µM |  | > 100 µM |  | > 100 µM |  | > 100 µM |  | > 100 µM |  | > 100 µM |  | > 100 µM |  | > 100 µM |  | > 100 µM |  | > 100 µM |
| O=[N+]([O-])c1ccc(-c2nc(N(CCO)CCO)c3ccccc3n2)o1 | 0.0713 µM | 0.217 µM | 1.14 µM | 64.1 µM | 0.159 µM | 0.631 µM | 0.196 µM | 0.477 µM | 0.208 µM | 1.8 µM | 0.151 µM | 0.45 µM | 0.272 µM | 1.24 µM | 0.232 µM | 1.24 µM | 0.282 µM | 3.33 µM | 0.16 µM | 0.588 µM |
